Laboratory results published in patent US7858105B2, “Inhibitors of melanocyte tyrosinase as topical skin lighteners” (Mediquest Therapeutics, Inc., priority 2000, dated 2010).
In brackets after ≈: the same amount, converted by molar mass.

Tested on: Mel-Ab melanocytes
Assay: not given
Conditions: Curto et al. (1999); cited from earlier work

**Q.** Which “IC50 in melanocyte cell cultures” value does the source give for `COC(=O)c1cc(O)ccc1O` [methyl gentisate] here?
**A.** Its value is 30.9 ± 5 µg/mL (≈ 184 µM).

Same assay, conditions: murine melanocyte cell culture primary screen; cited from earlier work

**Q.** Which “inhibition of melanin accumulation (in words)” value does the source give for `COC(=O)c1cc(O)ccc1O` [methyl gentisate] here?
**A.** The value was “moderately potent inhibitor”.

Same assay, conditions: positive control; owing to cytotoxicity, not inhibition of pigmentation per se; cited from earlier work

**Q.** For `Oc1ccc(O)cc1` [hydroquinone], which “IC50 on Mel-Ab culture” value is on record?
**A.** Its value is “low micrograms per milliliter range”.

Target: T1, mammalian tyrosinase (Mus musculus, UniProt P11344)
T1 construct: Cellular lysates of Mel-Ab cells may be used as tyrosinase enzyme preparations; endogenous in cells; host or cells: Mel-Ab mouse melanocytes (C57BL/6-derived), cell lysate
T1 sequence (P11344 19-533): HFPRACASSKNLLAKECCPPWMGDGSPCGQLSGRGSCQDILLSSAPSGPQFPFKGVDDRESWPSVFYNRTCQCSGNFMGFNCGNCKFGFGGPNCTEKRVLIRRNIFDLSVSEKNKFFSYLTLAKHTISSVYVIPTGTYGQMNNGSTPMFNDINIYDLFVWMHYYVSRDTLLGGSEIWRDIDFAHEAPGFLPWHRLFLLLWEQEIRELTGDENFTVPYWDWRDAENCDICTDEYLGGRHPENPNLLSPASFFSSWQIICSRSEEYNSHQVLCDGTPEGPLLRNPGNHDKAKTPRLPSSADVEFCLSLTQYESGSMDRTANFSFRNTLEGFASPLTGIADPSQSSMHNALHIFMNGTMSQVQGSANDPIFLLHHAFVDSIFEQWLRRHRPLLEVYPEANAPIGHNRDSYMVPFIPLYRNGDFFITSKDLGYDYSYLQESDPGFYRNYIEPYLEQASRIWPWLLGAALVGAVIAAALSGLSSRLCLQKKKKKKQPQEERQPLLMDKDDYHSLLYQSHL
Assay: cell-free mammalian-enzyme assay system (tyrosinase inhibition, Mel-Ab cell lysates)
Type: biochemical
Conditions: read-out: E: concentration of compound that produces 50% pigment inhibition in the cell-free mammalian-enzyme assay system
Excerpt: (§1) In the present invention, one or all of three in vitro bioassays can be utilized to evaluate the efficacy and toxicity of candidate skin-lightening compounds. The three bioassays characterize the compounds with regard to mammalian tyrosinase enzyme inhibition (cell free), pigmentation in melanocyte cultured cells, and cytotoxicity of mammalian cultured cells. Both cell-based pigmentation and cell-free enzymatic assays have been developed using the mammalian melanocyte cell line, Mel-Ab, a C57BL/6 mouse-derived cell line that produces high levels of melanin. A distinct advantage of this approach is that humans share substantial sequence similarities in their genes (DNA) and proteins (such as tyrosinase) with mice, relative to non-mammalian species (e.g., mushrooms). So, mouse Mel-Ab melanocytes can serve as adequate surrogates for human melanocytes for many pharmacologic purposes.
(§2) These adherent murine melanocytes are grown on tissue culture plastic in medium supplemented with fetal bovine serum, 12-O-tetradecanoylphorbol-13-acetate (TPA) to stimulate cell division via down-regulation of protein kinase C, [22, 23] and cholera toxin to stimulate adenylate cyclase activity in the absence of α-MSH. Cellular lysates of Mel-Ab cells may be used as tyrosinase enzyme preparations. Multi-well plate assays have been validated for enzyme inhibition (e.g., DOPA oxidation by colorimetric measurement or radiolabeled substrate incorporation into melanin) and for pigmentation assays on cultured Mel-Ab cells. After 4 days of treatment of cultured cells, melanin content is determined using a spectrophotometer at 400+ nm. This assay can detect an apparent loss in pigmentation resulting from either inhibition of de novo synthesis (e.g. via inhibition of tyrosinase, or the adenylate cyclase pathway, or another pathway) or a cytostatic/cytotoxic mechanism. It is therefore a broad primary screen. It is used in parallel with the tyrosinase enzymatic assay to determine whether an inhibitor of pigmentation at the cellular level is acting primarily at the enzyme level.
A distinct advantage of the screening systems (developed by the inventors of the present invention) is the focus on mammalian tyrosinase, as opposed to non-mammalian enzymes often used by other investigators, such as mushroom tyrosinase. Since the biochemical and pharmacologic characteristics of an enzyme or isozyme can vary dramatically between species of organisms (e.g., due to dissimilarities in primary, secondary, and tertiary structure), it is highly preferable that candidate topical skin lighteners intended for human use be discovered based on their biochemical action against a mammalian source of the enzyme. Mushroom tyrosinase (and in some instances plant polyphenol oxidases) has been used in the vast majority of prior inhibitor studies. […] Thus, the methods reported by the inventors of the present invention for screening against mammalian tyrosinase or within melanocytes is highly preferred over other possible screening strategies.
The substrate kinetic “affinity” of mammalian tyrosinase for L-tyrosine is approximately KM=600 μM. A potentially effective candidate skin lightening agent is considered to be desirable, active, and/or functional if it renders 50% inhibition of mammalian tyrosinase enzyme activity, at concentrations below half the enzyme's “affinity” for tyrosine in cell-free enzyme extracts (IC50≦300 μM) and pigment production in melanocyte cell cultures (IC50≦300 μM).
(§3) A first class of compounds based upon the template compound benzimidazolethiol (lower left structure) were tested for tyrosinase inhibition, cell culture pigment inhibition, and toxicity, by methods described in Curto, E. V., et al. (1999).

**Q.** For `COc1ccc(N)cc1OC` [ID # 006], which IC50 is on record?
**A.** The IC50 was 110 µM.

**Q.** With `Oc1ccc2c(c1)OCO2` [ID # 009] as the compound, how does the IC50 read?
**A.** The IC50 was 98 µM.

**Q.** Which IC50 does the source give for `Oc1ccc2[nH]ccc2c1` [ID # 026] here?
**A.** The IC50 was 54 µM.

**Q.** With `NC(=S)Nc1ccccc1` [ID # 033] as the compound, how does the IC50 read?
**A.** The IC50 was 2 µM.

**Q.** With `Sc1nc2ccccc2s1` [ID # 040] as the compound, how does the IC50 read?
**A.** Its IC50 is 8 µM.

**Q.** Which IC50 does the source give for `CC(=S)Nc1ccccc1` [ID # 054] here?
**A.** Its IC50 is 16 µM.

**Q.** With `NCCc1cccs1` [ID # 073] as the compound, how does the IC50 read?
**A.** Its IC50 is over 1000 µM.

**Q.** For `Nc1ccc2c(c1)CCC2` [ID # 079], which IC50 is on record?
**A.** Its IC50 is 73 µM.

**Q.** With `COc1ccc(CS)cc1` [ID # 082] as the compound, how does the IC50 read?
**A.** Its IC50 is 5 µM.

**Q.** Which IC50 does the source give for `CC(=O)Nc1ccc(S)cc1` [ID # 083] here?
**A.** Its IC50 is 19 µM.

**Q.** Which IC50 does the source give for `COc1cccc2[nH]c(S)nc12` [ID # 084] here?
**A.** The IC50 was 0.07 µM.

Tested on: not listed separately
Assay: UV absorbance: extinction coefficient at wavelength of maximum absorbency
Type: physicochemical
Conditions: not given

**Q.** For `COc1ccc(CS)cc1` [ID # 082], which “wavelength of maximum absorbency λmax” value is on record?
**A.** Its value is 275 nm.

**Q.** For `CC(=O)Nc1ccc(S)cc1` [ID # 083], which “wavelength of maximum absorbency λmax” value is on record?
**A.** The value was 265 nm.

**Q.** Which “wavelength of maximum absorbency λmax” value does the source give for `COc1cccc2[nH]c(S)nc12` [ID # 084] here?
**A.** Its value is 310 nm.

Same assay, conditions: at λmax

**Q.** For `COc1ccc(CS)cc1` [ID # 082], which “compound extinction coefficient ε” value is on record?
**A.** The value was 1000 OD/M × cm.

**Q.** Which “compound extinction coefficient ε” value does the source give for `CC(=O)Nc1ccc(S)cc1` [ID # 083] here?
**A.** Its value is 4700 OD/M × cm.

**Q.** For `COc1cccc2[nH]c(S)nc12` [ID # 084], which “compound extinction coefficient ε” value is on record?
**A.** Its value is 10000 OD/M × cm.

Tested on: Chinese hamster V79 cells
Assay: not given
Conditions: cited from earlier work

**Q.** For `Oc1ccc(O)cc1` [hydroquinone], which “mutagenicity in mammalian Chinese hamster V79 cells” value is on record?
**A.** The value was “mutagenic”.

Tested on: Mel-Ab melanocytes
Assay: mammalian-melanocyte-culture pigment assay system
Type: cell-based, mouse
Conditions: Mus musculus, Mel-Ab, read-out: P: concentration of compound that produces 50% inhibition in the mammalian-melanocyte-culture pigment assay system
Excerpt: as §1, §2, §3

**Q.** Which IC50 does the source give for `COc1ccc(N)cc1OC` [ID # 006] here?
**A.** Its IC50 is 182 µM.

**Q.** Which IC50 does the source give for `Oc1ccc2c(c1)OCO2` [ID # 009] here?
**A.** The IC50 was 209 µM.

**Q.** With `Oc1ccc2[nH]ccc2c1` [ID # 026] as the compound, how does the IC50 read?
**A.** Its IC50 is 153 µM.

**Q.** With `NC(=S)Nc1ccccc1` [ID # 033] as the compound, how does the IC50 read?
**A.** The IC50 was 12 µM.

**Q.** With `CC(=S)Nc1ccccc1` [ID # 054] as the compound, how does the IC50 read?
**A.** The IC50 was 16 µM.

**Q.** With `NCCc1cccs1` [ID # 073] as the compound, how does the IC50 read?
**A.** The IC50 was 100 µM.

**Q.** Which IC50 does the source give for `Nc1ccc2c(c1)CCC2` [ID # 079] here?
**A.** The IC50 was 71 µM.

**Q.** With `COc1ccc(CS)cc1` [ID # 082] as the compound, how does the IC50 read?
**A.** The IC50 was 81 µM.

**Q.** Which IC50 does the source give for `CC(=O)Nc1ccc(S)cc1` [ID # 083] here?
**A.** Its IC50 is 82 µM.

Same assay, conditions: read-out: P: concentration of compound that produces 50% inhibition in the mammalian-melanocyte-culture pigment assay system

**Q.** For `COc1cccc2[nH]c(S)nc12` [ID # 084], which IC50 is on record?
**A.** Its IC50 is 1.6 µM.

Tested on: Salmonella
Assay: not given
Conditions: cited from earlier work

**Q.** Which “mutagenicity in Salmonella” value does the source give for `Oc1ccc(O)cc1` [hydroquinone] here?
**A.** The value was “mutagenic”.

Tested on: not given
Assay: not given
Conditions: compared with HQ; cited from earlier work

**Q.** Which mutagenic activity does the source give for `COC(=O)c1cc(O)ccc1O` [methyl gentisate] here?
**A.** Its mutagenic activity is “lacking the mutagenic activity”.

Target: T1, mammalian tyrosinase
Assay: not given
Conditions: Curto et al. (1999); cited from earlier work

**Q.** For `COC(=O)c1cc(O)ccc1O` [methyl gentisate], which “IC50 against tyrosinase activity in cell-free assays” value is on record?
**A.** The value was 11.2 ± 4 µg/mL (≈ 66.6 µM).

Same assay, conditions: cited from earlier work

**Q.** Which “inhibition of the mammalian tyrosinase enzyme (in words)” value does the source give for `Oc1ccc(O)cc1` [hydroquinone] here?
**A.** Its value is “minimal enzymatic inhibition”.

Same assay, conditions: listed as HQ; cited from earlier work

**Q.** For `Oc1ccc(O)cc1` [hydroquinone], which “inhibition of the mammalian tyrosinase enzyme (in words)” value is on record?
**A.** Its value is “not an effective inhibitor”.

Tested on: Mel-Ab melanocytes
Assay: not given
Conditions: Curto et al. (1999); cited from earlier work
Remark: another data set of the same source

**Q.** With `COC(=O)c1cc(O)ccc1O` [methyl gentisate] as the compound, how does the “melanocyte cytotoxicity IC50” value read?
**A.** The value was 118.7 ± 12 µg/mL.

Same assay, conditions: cited from earlier work

**Q.** For `Oc1ccc(O)cc1` [hydroquinone], which “cytotoxicity to cultured mammalian melanocytes (in words)” value is on record?
**A.** Its value is “potent cytotoxicity”.

Same assay, conditions: listed as HQ; cited from earlier work

**Q.** With `Oc1ccc(O)cc1` [hydroquinone] as the compound, how does the “cytotoxicity to cultured mammalian melanocytes (in words)” value read?
**A.** Its value is “cytotoxic”.

Tested on: Mel-Ab melanocytes
Assay: mammalian-melanocyte-culture toxicity assay system
Type: cell-based, mouse
Conditions: Mus musculus, Mel-Ab, read-out: T: concentration of compound that kills 50% of cells in the mammalian-melanocyte-culture toxicity assay system
Excerpt: as §1
[6] It should be noted that many inhibitors identified in cell-free enzymatic assays might have subsequent difficulties with toxicity or delivery in melanocyte cell-based assays. Therefore, all three in vitro assays in combination provide an excellent characterization of candidate skin lightening compounds.
as §3

**Q.** Which IC50 does the source give for `COc1ccc(N)cc1OC` [ID # 006] here?
**A.** Its IC50 is over 1000 µM.

**Q.** With `Oc1ccc2c(c1)OCO2` [ID # 009] as the compound, how does the IC50 read?
**A.** The IC50 was 775 µM.

**Q.** Which IC50 does the source give for `Oc1ccc2[nH]ccc2c1` [ID # 026] here?
**A.** Its IC50 is 367 µM.

**Q.** For `NC(=S)Nc1ccccc1` [ID # 033], which IC50 is on record?
**A.** The IC50 was over 1000 µM.

**Q.** With `CC(=S)Nc1ccccc1` [ID # 054] as the compound, how does the IC50 read?
**A.** Its IC50 is over 1000 µM.

**Q.** Which IC50 does the source give for `NCCc1cccs1` [ID # 073] here?
**A.** Its IC50 is over 1000 µM.

**Q.** Which IC50 does the source give for `Nc1ccc2c(c1)CCC2` [ID # 079] here?
**A.** Its IC50 is 472 µM.

**Q.** For `COc1ccc(CS)cc1` [ID # 082], which IC50 is on record?
**A.** Its IC50 is 500 µM.

**Q.** Which IC50 does the source give for `CC(=O)Nc1ccc(S)cc1` [ID # 083] here?
**A.** The IC50 was 542 µM.

Same assay, conditions: read-out: T: concentration of compound that kills 50% of cells in the mammalian-melanocyte-culture toxicity assay system

**Q.** With `COc1cccc2[nH]c(S)nc12` [ID # 084] as the compound, how does the IC50 read?
**A.** Its IC50 is over 1000 µM.
